Data: patent US20220265845A1, “AMINOTHIOLESTER COMPOUNDS AND USES THEREOF” (ADVANCED BIODESIGN, priority 2019, published 2022)

The compounds below were run on Raji cells (assay: Cell cytotoxicity by Rituximab-compound 9 (Alamar Blue)). Settings: treatment of 50 μg/ml.
Protocol: 50 000 viable Raji cells were plated in triplicate. […] The cells were incubated for 48 h at which time 20 μl of Alamar Blue (Thermo Fisher Scientific) was added to each well. The plates were incubated for an additional four hours and the fluorescence intensity read on a plate reader using excitation wavelength of 540 nm and an emission wavelength of 620 nm.

“Rituximab: Antibody rituximab (Roche), target CD20 [reference compound]” was tested, and the “Mean viability of Raji cells in percentage comparing to the non-treated cells” value was 85.50%±2.268%.

These compounds were tested on HL-60 (assay: Cell viability assay (Resazurin), cytotoxicity in HL60 cells). Settings: Homo sapiens, HL-60, read-out: IC50 at 48 h, 48 hours of incubation.
Type: cell-based
Protocol: Cell lines. Leukemic cell line, HL-60 (derived from a person with AML-M2), was used for determination of drug efficacy. Cells were obtained from the European Collection of Cell Cultures (ECACC). All cells were cultivated in appropriate media according to supplier recommendations.
Cell Viability assay, 96-well format. Cells were seeded into 96-well cell culture plates at concentrations required to ensure approximately 80% confluence in control (untreated cells) at the end of experiment (0.5×10^4-5×10^4 cell/well).
The sensitivity towards compounds according to the invention was determined using different concentrations of each compound ranging from 0.5 to 100 μM (0.5, 1, 2, 5, 10, 15, 20, 25, 30, 40, 50, 100 μM). Following 48 hours of incubation at 37° C. in a humidified atmosphere containing 5% CO2, the growth-inhibitory effect of compounds was analyzed using Resazurin, according to manufactures instructions.
To ensure good data quality and to minimize impact of pipetting errors, each compounds concentration was assessed based on mean fluorescence intensity from 8 separate wells. Compounds response were quantified by the half maximal inhibitory concentration (IC50) for each particular cell line, and determined by non-linear regression analysis of log-dose/response curves.
Statistical Analysis. Values were expressed as mean±SD or frequencies and proportions. Cell viability curves were determined using four parameter regression line. Differences between groups were determined by unpaired t test, Chi-square, Fisher's exact test or ANOVA, where appropriate. P<0.05 was considered statistically significant. Analysis was performed using GraphPad prism version 5.0 (GraphPad software, San Diego Calif. USA).

`CSC(=O)C#CC(C)(C)N(C)CCOCc1cccc(F)c1` [Example 9, S-methyl 4-[2-[(3-fluorophenyl)methoxy]ethyl-methyl-amino]-4-methyl-pent-2-ynethioate] and `CSC(=O)C#CC(C)(C)N(C)CCOCc1cccc(C)c1` [Example 4, S-methyl 4-methyl-4-[methyl-[2-(m-tolylmethoxy)ethyl]amino]pent-2-ynethioate] are within 1.5-fold of each other in IC50: 6.65 µM for the first, 5.62 µM for the second.

Going from `COc1ccc(COCCN(C)C(C)(C)C#CC(=O)SC)cc1OC` [Example 7, S-methyl 4-[2-[(3,4-dimethoxyphenyl)methoxy]ethyl-methyl-amino]-4-methyl-pent-2-ynethioate] to `COc1ccc(C(=O)OCCN(C)C(C)(C)C#CC(=O)SC)cc1OC` [Example 22, 2-[(1,1-dimethyl-4-methylsulfanyl-4-oxo-but-2-ynyl)-methylamino]ethyl-3,4-dimethoxybenzoate], the IC50 rises from 6.08 µM to 15.3 µM (2.5-fold). The first is the more potent here.

`CSC(=O)C#CC(C)(C)N(C)CCOCc1cccc(Cl)c1` [Example 8, S-methyl 4-[2-[(3-chlorophenyl)methoxy]ethyl-methyl-amino]-4-methyl-pent-2-ynethioate] and `CSC(=O)C#CC(C)(C)N(C)CCOCc1cccnc1` [Example 11, S-methyl 4-methyl-4-[methyl-[2-(3-pyridylmethoxy)ethyl]amino]pent-2-ynethioate] are within 1.5-fold of each other in IC50: 7.07 µM for the first, 6.56 µM for the second.

Going from `CSC(=O)C#CC(C)(C)N(C)CCO` [Example 18, S-methyl 4-((2-hydroxyethyl)(methyl)amino)-4-methylpent-2-ynethioate] to `CSC(=O)C#CC(C)(C)N(C)CCOC(C)=O` [Example 21, 2-[(1,1-dimethyl-4-methylsulfanyl-4-oxo-but-2-ynyl)-methylamino]ethyl acetate], the IC50 rises from 6.75 µM to 12.7 µM (1.9-fold). The first is the more potent here.

Compared with `CSC(=O)C#CC(C)(C)N(C)CCOC(=O)N(C)CCN(C)C` [Example 23, S-methyl 2,5,10,11,11-pentamethyl-6-oxo-7-oxa-2,5,10-triazatetradec-12-yne-14-thioate], `CCOCCN(C)C(C)(C)C#CC(=O)SC` [Example 1, S-methyl 4-[2-ethoxyethyl(methyl)amino]-4-methyl-pent-2-ynethioate] is 2.1-fold lower in IC50: 10.6 µM for the first, 4.98 µM for the second. The second is the more potent here.

First: COc1ccc(COCCN(C)C(C)(C)C#CC(=O)SC)cc1 [Example 6, S-methyl 4-[2-[(4-methoxyphenyl)methoxy]ethyl-methyl-amino]-4-methyl-pent-2-ynethioate]
Second: CSC(=O)C#CC(C)(C)N(C)CCOCc1ccc2ccccc2c1 [Example 19, S-methyl 4-methyl-4-[methyl-[2-(2-naphthylmethoxy)ethyl]amino]pent-2-ynethioate]
The IC50 of the first is 1.7-fold lower: 6.48 µM for the first, 11.3 µM for the second.

`CSC(=O)C#CC(C)(C)N1CC[C@@H](OCc2ccccc2)C1` [Example 28, (R)—S-methyl 4-(3-(benzyloxy)pyrrolidin-1-yl)-4-methylpent-2-ynethioate] and `CSC(=O)C#CC(C)(C)N1CCC[C@H]1COCc1ccccc1` [Example 27, (S)—S-methyl 4-(2-((benzyloxy)methyl)pyrrolidin-1-yl)-4-methylpent-2-ynethioate] are within 1.5-fold of each other in IC50: 11.8 µM for the first, 10.4 µM for the second.

`COC[C@@H]1CCCN1C(C)(C)C#CC(=O)SC` [Example 24, (S)—S-methyl 4-(2-(methoxymethyl)pyrrolidin-1-yl)-4-methylpent-2-ynethioate] and `CO[C@@H]1CCN(C(C)(C)C#CC(=O)SC)C1` [Example 25, S-methyl 4-[(3R)-3-methoxypyrrolidin-1-yl]-4-methyl-pent-2-ynethioate] are within 1.5-fold of each other in IC50: 20.5 µM for the first, 16.5 µM for the second.

`CSC(=O)C#CC(C)(C)N(C)CCOCc1ccncc1` [Example 12, S-methyl 4-methyl-4-[methyl-[2-(4-pyridylmethoxy)ethyl]amino]pent-2-ynethioate] and `CSC(=O)C#CC(C)(C)N(C)CCOCc1ccccn1` [Example 10, S-methyl 4-methyl-4-[methyl-[2-(2-pyridylmethoxy)ethyl]amino]pent-2-ynethioate] are within 1.5-fold of each other in IC50: 5.68 µM for the first, 5.62 µM for the second.

`COC(=O)C#CC(C)(C)N(C)C` [Example 13, methyl 4-(dimethylamino)-4-methyl-pent-2-ynoate] and `CCOC(=O)C#CC(C)(C)N(C)C` [Example 14, ethyl 4-(dimethylamino)-4-methyl-pent-2-ynoate] are within 1.5-fold of each other in IC50: 42.7 µM for the first, 40 µM for the second.

First: C=CCOCCN(C)C(C)(C)C#CC(=O)SC [Example 2, S-methyl 4-[2-allyloxyethyl(methyl)amino]-4-methyl-pent-2-ynethioate]
Second: CSC(=O)C#CC(C)(C)N(C)CCOCC1=C(C)CCCC1(C)C [Example 20, S-methyl 4-methyl-4-[methyl-[2-[(2,6,6-trimethylcyclohexen-1-yl)methoxy]ethyl]amino]pent-2-ynethioate]
The IC50 of the first is 2.1-fold lower: 6.5 µM for the first, 13.6 µM for the second.

Going from `CSC(=O)C#CC(C)(C)N(C)CCCCOCc1ccccc1` [Example 17, S-methyl 4-((4-(benzyloxy)butyl)(methyl)amino)-4-methylpent-2-ynethioate] to `CSC(=O)C#CC(C)(C)N(C)[C@@H]1CCC[C@H]1OCc1ccccc1` [Example 26, S-methyl 4-(((1R,2R)-2-(benzyloxy)cyclopentyl)(methyl)amino)-4-methylpent-2-ynethioate], the IC50 rises from 11.3 µM to 17.5 µM (1.5-fold).

`CN(C)C(C)(C)C#CC(=O)SCC(=O)OC(C)(C)C` [Example 15, tert-butyl 2-((4-(dimethylamino)-4-methylpent-2-ynoyl)thio)acetate] and `CN(C)C(C)(C)C#CC(=O)SCC(=O)O` [Example 16, 2-((4-(dimethylamino)-4-methylpent-2-ynoyl)thio)acetic acid] are within 1.5-fold of each other in IC50: 25 µM for the first, 22.5 µM for the second.
